Experimental data reported in patent US20210251953A1, “COMPOSITIONS FOR TREATING AND/OR […]-A[…]” (U[…] DE OLAVIDE, priority 2018, published 2021).
Where two headings read alike, the source gives them in different places.

Assays:
[1] = tested on: APP-PS1 mice; experiment: Step-through passive avoidance test in APP-PS1 mice (chronic AD mouse model); format: in vivo; conditions: APP-PS1 mice older than 15 months, oral STX64 during 3-4 weeks; vs vehicle and wild type mice
Experimental: (§1) Mice strains and conditions: The male Swiss (CD1) and APP-PS1 (Blanchard et al., 2003. Exp Neural. 184(1):247-63) mice used in this study were purchased from an authorized provider (University of Seville, Spain) and they were habituated to standard animals housing conditions for 2-3 weeks (a 12 h light/dark cycle, temperature and humidity). Behavioral studies were performed with 8 week-old Swiss mice, and >15 month-old APP-PS1 mice in C57Black background. For histological studies, male APP-PS1 mice from 2 to >15 months of age were used. All experiments were performed in accordance with European Union guidelines (2010/63/EU) and with Spanish regulations for the use of laboratory animals in chronic experiments (RD 53/2013 on the care of experimental animals: BOE Aug. 2, 2013), and the approval of the University Pablo de Olavide animal care committees was obtained prior to performing this study.
(§2) Mice Oral STX administration: STX64 was dissolved in drinking water at 0.005 mg/ml. Mice were exposed to STX solution during 3-4 weeks and the water intake was registered every day during the treatment. The estimated daily dose of STX64 was between 1-2 mg/Kg of body weight.
Step-through passive avoidance (PA) test: Mice have an innate preference for dark and enclosed environments. […]

[2] = tested on: C. elegans Alzheimer's disease model strain CL2006; experiment: Paralysis in C. elegans Alzheimer's disease model expressing β-amyloid in muscle cells; format: in vivo; conditions: nematodes expressing β-amyloid in muscle cells, monitored from 1st day of adulthood
Experimental: C. elegans model of Alzheimer's disease: We also tested an Alzheimer's disease model expressing β-amyloid protein in muscle cells which causes paralysis in the nematode as it ages. Nematodes were synchronized at 20° C. Paralysis was monitored from 1st day of adulthood, by observing whether there is a lack of movement after the nematode was stimulated with a platinum pick.

[3] = tested on: β-amyloid; experiment: β-amyloid immunohistochemistry and histological analysis in APP-PS1 mice; format: in vivo
Experimental: as §1, §2
Immunohistochemistry and histological analysis: For immunohistochemistry, an antibody against β-amyloid (1:3000, Sigma-Aldrich) was used. Antibody staining was visualized with H2O2 and diaminobenzidine, and enhanced with nickel. To minimize variability, at least 5 sections per mice were analyzed under a bright-field DMRB RFY HC microscope (Leica). In each section, the percentage area occupied by β-amyloid, the density and the average size of β-amyloid accumulations were quantified using Image-J software (downloaded as a free software package from the public domain: http://rsb.info.nih.gov/ij/download.html).

[4] = tested on: wild type worms and sul-2 deletion mutants; conditions: cited from earlier work
[5] = tested on: wild type mice injected with β-amyloid oligomers in the hippocampus; experiment: Step-through passive avoidance test after intrahippocampal β-amyloid oligomers (acute AD mouse model); format: in vivo
Experimental: as §1
Mice local drug infusion: Mice were anesthetized with 4% chloral hydrate ([…] of body weight, i.p.) and when fully anesthetized, they were situated in a stereotactic frame. In order to injure the hippocampus, 0.5 μl of 5 μM solution of β-amyloid oligomers were injected bilaterally into the dorsal hippocampus of the mice at the following stereotactic coordinates: AP=−2.2 mm, ML=±1.5 mm, V=−1.5 mm from the Bregma. The mice were then allowed to recover for at least 15 days. […]

[6] = tested on: 35 polyglutamine (polyQ) repeats fused to YFP, strain AM140; experiment: Counting of polyQ aggregates in C. elegans Huntington's disease model; format: in vivo; conditions: STX64 1 μg/ml in DMSO; counted at day 5 of adulthood
Experimental: To quantify the aggregates, animals were transferred to pads comprising 2% agarose and immobilized using 25 mM levamisole. The number of polyQ aggregates was determined by counting fluorescent aggregates at 10× magnification, from first bulb pharyngeal to second bulb.

[7] = tested on: GMC101 strain of C. elegans; experiment: Temperature-dependent paralysis assay in C. elegans Alzheimer's disease model; format: in vivo; conditions: for number of paralyzed worms: 1 μg/ml, counted after 18-hour incubation at 25° C.
Experimental: Paralysis assay: Worms were grown at a non-restrictive temperature of 16° C. until they reached the L4-young adult stage. The temperature was then shifted to 25° C. The number of paralyzed and non-paralyzed animals were counted after an 18-hour incubation at the restrictive temperature of 25° C.
Statistical analysis: The data were analyzed using a 2-tailed chi-square test in contingency table. Statistical analysis was performed using the GraphPad Prism software (version 7.00).

[8] = tested on: α-synuclein aggregates; experiment: Counting of fluorescent α-synuclein aggregates in C. elegans Parkinson's disease model; format: in vivo; conditions: NL5901 nematodes expressing α-synuclein fused to YFP; STX64 vs DMSO
Experimental: Further, we tested the effect of the sul-2 deletion and the administration of STX64 on the aggregation of α-synuclein. To quantify the aggregates, animals were transferred to pads comprising 2% agarose and immobilized using 25 mM levamisole. The number of α-synuclein aggregates was determined by counting fluorescent aggregates at 40× magnification, from first bulb pharyngeal to second bulb.

[9] = tested on: R6/1 mice; experiment: Open-field motor activity test in mouse model of Huntington's disease; format: in vivo; conditions: oral STX64 0.005 mg/ml in drinking water from 1 month of age for 1 month, tested at 2 months
Experimental: Mice strains and conditions: The R6/1 mice (Yi Li et al., 2005. NeuroRX. 2(3): 447-464; Mangiarini et al., 1996. Cell. 87(3):493-506) used in this study were purchased from an authorized provider and they were habituated to standard animals housing conditions for 2-3 weeks (a 12 h light/dark cycle, temperature and humidity). Motor activity studies were performed with 2-month-old R6/1 mice. All experiments were performed in accordance with European Union guidelines (2010/63/EU) and with Spanish regulations for the use of laboratory animals in chronic experiments (RD 53/2013 on the care of experimental animals: BOE Aug. 2, 2013), and the approval of the University Pablo de Olavide animal care committees was obtained prior to performing this study.
Mice Oral STX administration: STX64 was dissolved in drinking water at 0.005 mg/ml. 1-month-old mice were exposed to STX solution for 1 month and the water intake was registered every day during the treatment. The estimated daily dose of STX64 was between 1-2 mg/Kg of body weight.
Motor activity test: Locomotor activity was tested in a non-stressful open-field (56×40×40 cm) for 15 minutes. The distance traveled by the mice was estimated with Smart video-tracking software (Panlab).

[10] = tested on: C. elegans Parkinson's disease model strain NL5901; experiment: Mobility (pitches per minute) in C. elegans Parkinson's disease model; format: in vivo; conditions: STX64 1 μg/ml in DMSO; nematodes overexpressing human α-synuclein in muscle cells, monitored every two days; vs DMSO
Experimental: C. elegans models of Parkinson's disease: We tested if sul-2 mutations or STX64 (Sigma cat. No. 51950) treatment at 1 μg/ml concentration dissolved in DMSO improved the symptoms caused by the overexpression of human α-synuclein in muscle cells (see the following references for information on the model used: van Ham et al., 2008. PLoS Genet. 4(3):e1000027; Gidalevitz et al., 2009. PLoS Genet. 5(3):e1000399; van Ham et al., 2010. Cell. 142(4):601-12). In particular, nematodes were synchronized at 20° C. and monitored every two days. On each day of monitoring, a nematode was placed in a drop of M9 buffer, allowing 30 seconds accommodation and later counting number of pitches in one minute, assuming that a pitch occurs when the head of the nematode crosses the axial axis. N=20 for each day assayed and condition (this protocol was adapted from Van Ham et al., 2010. Cell. 142: 601-612).

Compound	cognitive deficiencies (passive avoidance test) [1]	paralysis with age [2]	β-amyloid immunoreactive area ([3]; >15-month-old APP-PS1 mice, 3-4 weeks oral STX64 (0.005 mg/ml in drink water), frontal cortex and hippocampus, vs vehicle)	β-amyloid plaque density ([3]; >15-month-old APP-PS1 mice, 3-4 weeks oral STX64, frontal cortex and hippocampus, vs vehicle)	average β-amyloid plaque size ([3]; >15-month-old APP-PS1 mice, 3-4 weeks oral STX64, frontal cortex, vs vehicle)	average β-amyloid plaque size ([3]; >15-month-old APP-PS1 mice, 3-4 weeks oral STX64, hippocampus, vs vehicle)	β-amyloid deposition compared with the time-course in untreated APP-PS1 mice ([3]; >15 month-old APP-PS1 mice, 3-4 weeks oral STX64, frontal cortex and hippocampus)	longevity ([4]; sul-2 deletion mutants)	longevity ([4]; wild type worms)	cognitive deficiencies (escape latency, passive avoidance test) ([5]; local (intrahippocampal) STX64, 0.5 μl of 1 mg/ml, 20 minutes before β-amyloid oligomers)	cognitive deficiencies (escape latency, passive avoidance test) ([5]; systemic (oral) STX64, 0.005 mg/ml in drinking water)	total number of polyQ aggregates [6]	number of paralyzed worms [7]	effect on paralysis, comparison of sul-2 absence, STX64 and EMATE ([7]; GMC101 strain)	number of bigger α-synuclein aggregates (≥3 μm) [8]	number of smaller α-synuclein aggregates (<1 μm) [8]	motor activity (distance traveled in open-field, 15 minutes) [9]	mobility (number of pitches in one minute) [10]
NS(=O)(=O)Oc1ccc2c3c(c(=O)oc2c1)CCCCC3 [STX64]	completely reverted cognitive deficiencies	delayed paralysis	significant reduction	significant reduction	significant reduction	a significant reduction, except for plaque size in hippocampus	reduced β-amyloid deposition in APP-PS1 mice older than 15 months to that observed in APP-PS1 mice of 10-12 months of age	did not further increase the longevity	the same longevity effects as in the sul-2 mutants	reverted cognitive deficiencies	reverted cognitive deficiencies	reduced the total number of aggregates	reduced the number of paralyzed worms	appeared to have the greatest effect	increasing the number of bigger aggregates	decreased the number of smaller aggregates	decrease in motor activity can be avoided	significantly improved mobility
C[C@]12CC[C@@H]3c4ccc(OS(N)(=O)=O)cc4CC[C@H]3[C@@H]1CCC2=O [EMATE, estrone sulfamate]													reduced the number of paralyzed worms					
